The source made the active and inactive calls. The calls are words filed in the database; no cut-off is given here.

Here are results for one compound from ChEMBL document CHEMBL6114998, “Design, Synthesis, and Pharmacological Evaluation of Quinazoline and Quinoline Derivatives as Potent ENPP1 Inhibitors for Cancer Immunotherapy” (J Med Chem, 2025).

Data set [1] addresses T1, Ectonucleotide pyrophosphatase/phosphodiesterase family member 1 (Homo sapiens, UniProt P22413).
T1 sequence (P22413 whole entry): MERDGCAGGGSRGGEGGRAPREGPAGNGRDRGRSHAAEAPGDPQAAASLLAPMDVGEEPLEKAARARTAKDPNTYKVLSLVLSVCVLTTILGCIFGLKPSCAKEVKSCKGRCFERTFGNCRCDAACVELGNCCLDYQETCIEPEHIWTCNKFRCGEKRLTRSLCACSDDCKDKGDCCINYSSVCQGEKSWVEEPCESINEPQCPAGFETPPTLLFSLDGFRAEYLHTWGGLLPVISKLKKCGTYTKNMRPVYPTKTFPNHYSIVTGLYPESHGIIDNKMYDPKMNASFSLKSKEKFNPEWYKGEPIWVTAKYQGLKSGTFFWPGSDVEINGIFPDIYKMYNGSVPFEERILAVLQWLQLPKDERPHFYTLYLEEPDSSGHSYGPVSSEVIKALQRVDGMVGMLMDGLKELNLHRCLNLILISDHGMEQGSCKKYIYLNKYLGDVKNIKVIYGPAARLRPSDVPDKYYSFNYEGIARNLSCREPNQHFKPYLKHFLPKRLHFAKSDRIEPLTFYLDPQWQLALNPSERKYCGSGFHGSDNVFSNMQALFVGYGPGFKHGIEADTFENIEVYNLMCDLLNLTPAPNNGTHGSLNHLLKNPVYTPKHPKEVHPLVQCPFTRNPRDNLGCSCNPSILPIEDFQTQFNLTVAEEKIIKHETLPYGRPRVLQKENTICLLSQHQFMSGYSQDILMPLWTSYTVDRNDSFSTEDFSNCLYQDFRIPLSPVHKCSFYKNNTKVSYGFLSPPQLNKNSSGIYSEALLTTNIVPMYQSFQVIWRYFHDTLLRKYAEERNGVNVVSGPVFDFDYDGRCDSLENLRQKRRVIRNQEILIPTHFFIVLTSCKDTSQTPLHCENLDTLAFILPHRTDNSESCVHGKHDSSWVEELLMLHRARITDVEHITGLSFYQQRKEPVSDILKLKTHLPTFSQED
As to the kind of experiment: Inhibition of ENPP1 in human MDA-MB-231 cells using p-NPh-5TMP as substrate at pH 9.5 measured after 60 mins. It is filed as cell-based.

Data set [2] has as its system THP-1. As to the kind of experiment: Activation of STING signalling pathway in human THP-1 cells assessed as increase in TBK1 phosphorylation at 300 nM preincubated with compound for 2 hrs followed by cGAMP addition and measured after 3 hrs by Western blot analysis. It is filed as cell-based. The note with it: filed as activator, time 5.0 hrs.
The test system of data set [3] is THP-1. In words: Activation of STING signalling pathway in human THP-1 cells assessed as increase in IRF3 phosphorylation at 300 nM preincubated with compound for 2 hrs followed by cGAMP addition and measured after 3 hrs by Western blot analysis. It is filed as cell-based. Conditions: filed as activator, time 5.0 hrs. For orientation: In western blotting, separated proteins are transferred to a membrane and probed.

The target in data set [4] is T1, Ectonucleotide pyrophosphatase/phosphodiesterase family member 1. As to the kind of experiment: Inhibition of ENPP1 in human MDA-MB-231 cells using p-NPh-5TMP as substrate at pH 8.5 measured after 60 mins. It is filed as cell-based.
Data set [5] is described as follows: Half life in Sprague-Dawley rat at 10 mg/kg, iv measured upto 24 hrs by LC-MS/MS analysis. It is filed as ADME, organism-based. Conditions: in vivo.
Data set [6] is described as follows: MRT (0 to t) in Sprague-Dawley rat at 10 mg/kg, iv measured upto 24 hrs by LC-MS/MS analysis. Conditions: in vivo. It is filed as ADME, organism-based.
Data set [7] in a line: Apparent permeability across basal to apical side in human Caco-2 cells at 10 uM by LC-MS/MS analysis. It is filed as ADME, cell-based. (In general: Passage across Caco-2 layers is used to estimate intestinal permeability.)
The test system of data set [8] is CT26. In words: Antitumor activity against mouse CT26 cells allografted in female BALB/c mouse assessed as tumor growth inhibition at 200 mg/kg QD, ip measured every 2 days for 12 days relative to control. It is filed as functional. The note with it: CT26, 288 h, time 12 day, read-out: TGI.
Data set [9] relates to CT26. In words: Antitumor activity against mouse CT26 cells allografted in female BALB/c mouse assessed as tumor growth inhibition at 200 mg/kg QD, ip measured every 2 days for 12 days in presence of anti-PD-L1 antibody relative to control. Conditions: CT26, 288 h, time 12 day, read-out: TGI. It is filed as functional.
A short description of data set [10]: Toxicity in female BALB/c mouse allografted with mouse CT26 cells assessed as change in body weight at 200 mg/kg QD, ip in presence of anti-PD-L1 antibody measured every 2 days for 12 days. It is filed as organism-based. Conditions: in vivo, 288 h, time 12 day.
For data set [11], the system named is CT26. In words: Antitumor activity against mouse CT26 cells allografted in female BALB/c mouse assessed as increase in M1-type macrophages in tumor tissue at 200 mg/kg QD, ip measured every 2 days for 12 days by immunohistochemical analysis. It is filed as functional, organism-based. The note with it: time 12.0 day.
In data set [12] the test system is CT26. As to the kind of experiment: Antitumor activity against mouse CT26 cells allografted in female BALB/c mouse assessed as increase in infiltration of CD8+T cells in tumor tissue at 200 mg/kg QD, ip in presence of anti-PD-L1 antibody measured every 2 days for 12 days by immunohistochemical analysis. It is filed as functional, organism-based. Conditions: time 12.0 day.

The subject of data set [13] is CT26. As to the kind of experiment: Antitumor activity against mouse CT26 cells allografted in female BALB/c mouse assessed as decrease in M2-type macrophages in tumor tissue at 200 mg/kg QD, ip in presence of anti-PD-L1 antibody measured every 2 days for 12 days by immunohistochemical analysis. It is filed as functional, organism-based. Conditions: time 12.0 day.

Another data set deals with THP1-Dual. As to the kind of experiment: Activation of STING-mediated immune response in human THP1-Dual cells assessed as increase in cGAMP-induced ISRE activation preincubated in conditioned medium containing 36 hrs compound treated with human MDA-MB-231 cells measured after 24 hrs by quanti-luc luciferase assay. Conditions: filed as activator, time 60.0 hrs. It is filed as cell-based.

Another data set is filed under the species Homo sapiens. In words: Inhibition of STE (unknown origin) at 1 uM by KINOMEscan assay.
A short description of data set [14]: Inhibition of TK (unknown origin) at 1 uM by KINOMEscan assay. Conditions: Homo sapiens.
Data set [15] relates to CT26. In words: Antitumor activity against mouse CT26 cells allografted in female BALB/c mouse assessed as increase in M1-type macrophages in tumor tissue at 200 mg/kg QD, ip measured every 2 days for 12 days by immunofluorescence analysis. It is filed as functional, organism-based. The note with it: time 12.0 day.

A word on the IC50: it is the concentration that gives 50% inhibition. Low values mean inhibition by little substance, high ones a need for much substance. A word on the half-life: it is how long it takes for the measured level to halve. One may read the MRT last as a mean duration of stay, worked out from the concentration-time curve. For orientation: Papp B→A means how fast a substance crosses the layer from the basolateral side. Turning to `COc1cccc2c(N3CCC(O)(CNS(N)(=O)=O)CC3)ncnc12`, the IC50 is 1.53 nM in [1] and 42 nM in [4]. For the same compound, the result in the data set on THP-1 [2], with THP-1 [3], in the data set on CT26 [11], with CT26 [12], in the data set with CT26 [13] and in the data set with CT26 [15] was Active. Besides, the half-life in [5] was 46.7 min. In [6], this compound showed an MRT last at 24 h of 39.7 min. In [7], the Papp B→A at 10 µM amounted to 2.13 ×10⁻⁶ cm/s. The inhibition in vivo at 200 mg/kg was 39.9% with CT26 [8] and 64.6% with CT26 [9]. Further, the Activity result in data set [10] was “Non-toxic”; in the data set on THP1-Dual, “Dose-dependent-effect”. Besides, the inhibition result (in the data set filed under Homo sapiens; in [14]) was “inactive” in each case.
